Test results reported in patent publication US8552032B2, “Bicyclic derivatives useful as inhibitors of DPP-1” (Janssen Pharmaceutica NV, priority 2009, dated 2013).

Target: T1, recombinant human DPP-1 (Cathepsin C) (Homo sapiens, UniProt P53634)
T1 construct: made in house
Assay: DPP-1 Inhibition Assay (in vitro), fluorogenic substrate GR-AMC
Format: biochemical
Details: 0.15 nM DPP-1, 10 uM GR-AMC, pH 7.0, room temperature; average value where tested multiple times
Method: Test compounds were assessed for DPP-1 (Cathepsin C) inhibitory activity using a fluorogenic substrate, GR-AMC (Glycine-Arginine-amino-4-methylcoumarin, Bachem, 1-1215). The amount of amino-methylcoumarin released is proportional to the DPP-1 activity, and the reaction is monitored kinetically with a Molecular Devices plate reader using black 96-well plates.
All compounds were tested under room temperature conditions. The assay buffer consisted of 50 mM HEPES, pH 7.0, 100 mM NaCl, 2 mM glutathione (GSH), and 0.002% TWEEN 20. GSH and TWEEN 20 were added to the buffer fresh daily. Just prior to use, an in-house preparation of recombinant human DPP-1 (240 μM stock, MW 49.6 kD) was diluted 600-fold in assay buffer containing fresh 2 mM dithiothreitol (DTT) to activate the enzyme, then diluted into assay buffer (without DTT) 133-fold for a DPP-1 working solution of 3 nM. Test compounds were diluted in DMSO for 20× their final assay concentrations.
Additions to a 96-well black Costar 3915 plates were as follows: 90 μL of 11 μM GR-AMC, 5 μL test compound (followed by mixing), and 5 μL 3 nM DPP1 to start the reaction. Fluorescent reactions were monitored kinetically at 360 nm excitation, 440 nm emission on a Molecular Devices Spectramax XPS reader. The Softmax Pro software of the reader determined the initial velocity of the selected data (the first 3-5 minutes of the reaction), and the best linear regression fit of the initial kinetic data. Final assay conditions were 0.15 nM DPP-1, 10 uM GR-AMC, 50 mM HEPES, pH 7.0, 100 mM NaCl, 2 mM GSH, 0.002% TWEEN 20, 1 uM DTT, 5.0% DMSO. Initial velocity rates were plotted vs. test compound concentration by use of a four-parameter logistics equation (nonlinear regression, sigmoidal dose-response (variable slope), with fixed Hill (1.0) using GraphPad Prism® software for determination of DPP-1 IC50. Within-run assay coefficient of variation (CV) was generally <10%; between-run CV <20%.
Representative compounds of the present invention were tested according to the procedure as described above, with results as listed in Table 12, below.

T1 sequence (P53634 25-463): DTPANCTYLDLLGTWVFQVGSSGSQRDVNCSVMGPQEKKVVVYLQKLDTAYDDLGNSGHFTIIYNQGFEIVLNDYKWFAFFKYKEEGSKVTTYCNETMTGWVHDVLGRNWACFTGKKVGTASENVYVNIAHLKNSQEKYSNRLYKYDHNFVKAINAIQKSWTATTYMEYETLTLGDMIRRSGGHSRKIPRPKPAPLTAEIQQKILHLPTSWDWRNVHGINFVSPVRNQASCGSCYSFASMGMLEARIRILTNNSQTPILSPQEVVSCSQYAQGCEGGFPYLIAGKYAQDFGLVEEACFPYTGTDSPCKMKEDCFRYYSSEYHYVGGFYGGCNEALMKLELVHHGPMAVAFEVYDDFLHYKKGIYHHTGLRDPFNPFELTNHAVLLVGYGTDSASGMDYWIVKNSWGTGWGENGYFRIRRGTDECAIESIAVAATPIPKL

SMILES	IC50
N[C@@H](Cc1cccs1)C(=O)N1CCC(c2cc3cc(-c4ccc(C(=O)O)cc4)ccc3[nH]2)CC1 [Compound 27]	590 nM
CC[C@H](N)C(=O)NCCCc1cc2cc(C(=O)Nc3cccc4ccncc34)ccc2o1 [Compound 68]	710 nM
CC[C@H](N)C(=O)NCCCc1cc2cc(C(=O)Nc3cccc4ccccc34)ccc2o1 [Compound 54]	850 nM
CC[C@H](N)C(=O)NCCCc1cc2cc(C(=O)Nc3ccccc3F)ccc2[nH]1 [Compound 87]	2600 nM
N[C@@H](Cc1cccs1)C(=O)NCCc1nc2ccccc2[nH]1 [Compound 37, (S)—N-(2-(1H-benzo[d]imidazol-2-yl)ethyl)-2-amino-3-(thiophen-2-yl)propanamide]	4250 nM
CC[C@H](N)C(=O)NCCCc1cc2ccccc2o1 [Compound 42]	3300 nM
CC[C@H](N)C(=O)NCCCc1cc2cc(-c3ccc(OC)cc3)ccc2[nH]1 [Compound 104]	340 nM
CC[C@H](N)C(=O)NCCCc1cc2cc(C(=O)Nc3ccc4ncsc4c3)ccc2o1 [Compound 57]	700 nM
COc1ccc(-c2ccc3[nH]c(C4CCN(C(=O)[C@@H](N)Cn5cccn5)CC4)cc3c2)cc1OC [Compound 11]	~12000 nM
CC[C@H](N)C(=O)NCCCc1cc2cc(C(=O)NC3CCNc4ccccc43)ccc2o1 (some centres unmarked) [Compound 73]	1800 nM
CC[C@H](N)C(=O)NCCCc1cc2ccccc2n1C [Compound 41, (S)-2-amino-N-(3-(1-methyl-1H-indol-2-yl)propyl)butanamide]	6300 nM
CC[C@H](N)C(=O)NCCCc1cc2cc(-c3cc(OC)cc(OC)c3)ccc2[nH]1 [Compound 96]	370 nM
CC[C@H](N)C(=O)NCCCc1cc2cc(C(=O)N3CCCc4ccccc43)ccc2o1 [Compound 71]	2600 nM
CC[C@H](N)C(=O)NCCCc1cc2cc(-c3ccc(F)cc3)ccc2[nH]1 [Compound 101]	790 nM
CC[C@H](N)C(=O)NCCCc1cc2cc(C(=O)Nc3cccc(OC)c3)ccc2[nH]1 [Compound 92]	350 nM
COc1ccc(-c2ccc3[nH]c(C4CCN(C(=O)[C@@H](N)CC5CCC5)CC4)cc3c2)cc1OC [Compound 12]	14000 nM
CC[C@H](N)C(=O)NCCCc1cc2cc(C(=O)Nc3ncnc4[nH]ncc34)ccc2[nH]1 [Compound 63]	2500 nM
N[C@@H](Cc1cccs1)C(=O)N1CCC(c2cc3cc(-c4cccc(C(=O)O)c4)ccc3[nH]2)CC1 [Compound 21]	540 nM
CC[C@H](N)C(=O)NCCCc1cc2cc(-c3ccc(C(N)=O)cc3)ccc2[nH]1 [Compound 111]	690 nM
COc1ccc(-c2ccc3[nH]c(C4CCN(C(=O)C(N)c5ccco5)CC4)cc3c2)cc1OC (centres unmarked) [Compound 29]	> 20000 nM
N[C@@H](Cc1cccs1)C(=O)N1CCC(c2cc3cc(-c4ccncc4)ccc3[nH]2)CC1 [Compound 26]	230 nM
CCN(CCCc1cc2cc(C(=O)Nc3ccc(OC)c(OC)c3)ccc2[nH]1)C(=O)[C@@H](N)Cc1cccs1 [Compound 118]	370 nM
N#Cc1cccc(-c2ccc3[nH]c(C4CCN(C(=O)[C@@H](N)Cc5cccs5)CC4)cc3c2)c1 [Compound 20]	200 nM
COc1ccc(-c2ccc3[nH]c(C4CCN(C(=O)[C@@H](N)Cc5cn(C)cn5)CC4)cc3c2)cc1OC [Compound 14]	3370 nM
CC[C@H](N)C(=O)NCCCc1cc2cc(C(=O)Nc3cc(OC)cc(OC)c3)ccc2o1 [Compound 94]	1500 nM
CC[C@H](N)C(=O)NCCCc1cc2cc(C(=O)Nc3ccc(C(C)(C)C)cc3)ccc2[nH]1 [Compound 78]	910 nM
CC[C@H](N)C(=O)NCCCc1cc2cc(C(=O)Nc3ccc4ncccc4c3)ccc2o1 [Compound 67]	200 nM

Other lines, results leading:

IC50	SMILES
9000 nM	CC[C@H](N)C(=O)N(C)CCCc1cc2cc(C(=O)Nc3ccc(OC)c(OC)c3)ccc2[nH]1 [Compound 107]
910 nM	CC[C@H](N)C(=O)NCCCc1cc2cc(C(=O)Nc3cccc4cccnc34)ccc2o1 [Compound 66]
1000 nM	CC[C@H](N)C(=O)NCCCc1cc2cc(C(=O)Nc3ccc4c(c3)S(=O)(=O)C=C4)ccc2o1 [Compound 86]
670 nM	CC[C@H](N)C(=O)NCCCc1cc2cc(-c3ccncc3)ccc2[nH]1 [Compound 114]
110 nM	N[C@@H](Cc1cccs1)C(=O)N1CCC(c2cc3cc(-c4cccnc4)ccc3[nH]2)CC1 [Compound 23]
4100 nM	CC[C@H](N)C(=O)NCCCc1cc2cc(C(=O)Nc3ccccc3)ccc2o1 [Compound 51]
7400 nM	CC[C@H](N)C(=O)NCCCc1cc2cc(C(=O)NCc3ccccc3)ccc2o1 [Compound 53]
800 nM	CC[C@H](N)C(=O)NCCCc1cc2cc(C(=O)Nc3cccc(Cl)c3)ccc2[nH]1 [Compound 91]
240 nM	NC(=O)c1cccc(-c2ccc3[nH]c(C4CCN(C(=O)[C@@H](N)Cc5cccs5)CC4)nc3c2)c1 [Compound 19]
9600 nM	CC[C@H](N)C(=O)NCCCc1cc2cc(-c3ccccc3)ccc2o1 [Compound 45]
700 nM	CC[C@H](N)C(=O)NCCCc1cc2cc(-c3cccc(S(N)(=O)=O)c3)ccc2[nH]1 [Compound 113]
710 nM	CC[C@H](N)C(=O)NCCCc1cc2cc(-c3ccc(C(F)(F)F)cc3)ccc2[nH]1 [Compound 102]
350 nM	CC[C@H](N)C(=O)NCCCc1cc2cc(C(=O)Nc3cnc4ccccc4c3)ccc2o1 [Compound 64]
460 nM	NC(=O)c1cccc(-c2ccc3[nH]c(C4CCN(C(=O)[C@@H](N)Cc5nccs5)CC4)cc3c2)c1 [Compound 8]
300 nM	NC(=O)c1cccc(-c2ccc3[nH]c(C4CCN(C(=O)[C@@H](N)Cc5cccs5)CC4)cc3c2)c1 [Compound 5]
> 20000 nM	COc1ccc(-c2ccc3[nH]c(C4CCN(C(=O)C(N)c5cccs5)CC4)cc3c2)cc1OC (centres unmarked) [Compound 28]
1000 nM	CC[C@H](N)C(=O)NCCCc1cc2cc(C(=O)Nc3ccccc3OC)ccc2[nH]1 [Compound 88]
560 nM	CC[C@H](N)C(=O)NCCCc1cc2cc(C(=O)Nc3ccc(C)c(C)c3)ccc2[nH]1 [Compound 83]

IC50	SMILES
790 nM	CC[C@H](N)C(=O)NCCCc1cc2cc(C(=O)Nc3ccc(F)c(F)c3)ccc2[nH]1 [Compound 81]
2400 nM	CC[C@H](N)C(=O)NCCCc1cc2cc(C(=O)Nc3ccc4[nH]cnc4c3)ccc2o1 [Compound 72]
4000 nM	CC[C@H](N)C(=O)NCCCc1cc2cc(C(=O)Nc3cccnc3)ccc2o1 [Compound 52]
210 nM	COc1ccc(-c2ccc3[nH]c(C4CCN(C(=O)[C@@H](N)Cc5cccs5)CC4)nc3c2)cc1OC [Compound 18, (S)-2-amino-1-(4-(5-(3,4-dimethoxyphenyl)-1H-benzo[d]imidazol-2-yl)piperidin-1-yl)-3-(thiophen-2-yl)propan-1-one]
390 nM	CC[C@H](N)C(=O)NCCCc1cc2cc(-c3cccc(C(N)=O)c3)ccc2[nH]1 [Compound 103]
240 nM	CC[C@H](N)C(=O)NCCCc1cc2cc(C(=O)Nc3ccc(OC)c(OC)c3)ccc2[nH]1 [Compound 50, (S)-2-(3-(2-aminobutanamido)propyl)-N-(3,4-dimethoxyphenyl)-1H-indole-5-carboxamide]
1200 nM	CC[C@H](N)C(=O)NCCCc1cc2cc(C(=O)Nc3ccccc3C(C)C)ccc2[nH]1 [Compound 89]
43000 nM	CC[C@H](N)C(=O)NCCc1nc2ccccc2n1C [Compound 39]
2000 nM	CC[C@H](N)C(=O)NCCCc1cc2cc(-c3ccccc3C(N)=O)ccc2[nH]1 [Compound 116]
2800 nM	CC[C@H](N)C(=O)NCCCc1cc2cc(C(=O)Nc3cc(-c4ccccc4)[nH]n3)ccc2[nH]1 [Compound 62]
1000 nM	CC[C@H](N)C(=O)NCCCc1cc2cc(C(=O)N3CCc4ccccc4C3)ccc2o1 [Compound 84]
81 nM	COc1ccc(NC(=O)c2ccc3[nH]c(CCCNC(=O)[C@@H](N)Cc4nccs4)cc3c2)cc1OC [Compound 117, (S)-2-(3-(2-amino-3-(thiazol-2-yl)propanamido)propyl)-N-(3,4-dimethoxyphenyl)-1H-indole-5-carboxamide]
1200 nM	N[C@@H](Cc1cccs1)C(=O)N1CCC(c2cc3ccccc3o2)CC1 [Compound 1]
5800 nM	COc1ccc(-c2ccc3[nH]c(C4CCN(C(=O)[C@@H](N)Cc5ccc(Cl)s5)CC4)cc3c2)cc1OC [Compound 24]
430 nM	CC[C@H](N)C(=O)NCCCc1cc2cc(C(=O)Nc3c(C)cccc3C)ccc2o1 [Compound 95]
520 nM	CC[C@H](N)C(=O)NCCCc1cc2cc(-c3ccc4c(c3)OCO4)ccc2[nH]1 [Compound 112]
480 nM	CC[C@H](N)C(=O)NCCCc1cc2cc(Oc3ccccc3)ccc2[nH]1 [Compound 98]
